Test results published in US10343992B2, “1-cyano-pyrrolidine compounds as USP30 inhibitors” (MISSION THERAPEUTICS LIMITED, priority 2015, dated 2019).

Target: USP30 (Homo sapiens (Human), UniProt Q70CQ3)
Assay: USP30 biochemical FP or FI IC50 assay
Conditions: read-out: IC50 range
Procedure, shortened: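 Human USP30 preincubated 30 min at room temperature with compound (8-point series, 100 µM top final) in Tris pH 7.5, Tween 20, BSA, 5 mM β-mercaptoethanol, in duplicate. FP format: 50 nM TAMRA-peptide–isopeptide-ubiquitin substrate, ex 540/em 590. FI format: 100 nM ubiquitin-rhodamine 110, ex 487/em 535. Both read at 0 and after 2 h at room temperature.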

Sequence of USP30 (Q70CQ3 57-517): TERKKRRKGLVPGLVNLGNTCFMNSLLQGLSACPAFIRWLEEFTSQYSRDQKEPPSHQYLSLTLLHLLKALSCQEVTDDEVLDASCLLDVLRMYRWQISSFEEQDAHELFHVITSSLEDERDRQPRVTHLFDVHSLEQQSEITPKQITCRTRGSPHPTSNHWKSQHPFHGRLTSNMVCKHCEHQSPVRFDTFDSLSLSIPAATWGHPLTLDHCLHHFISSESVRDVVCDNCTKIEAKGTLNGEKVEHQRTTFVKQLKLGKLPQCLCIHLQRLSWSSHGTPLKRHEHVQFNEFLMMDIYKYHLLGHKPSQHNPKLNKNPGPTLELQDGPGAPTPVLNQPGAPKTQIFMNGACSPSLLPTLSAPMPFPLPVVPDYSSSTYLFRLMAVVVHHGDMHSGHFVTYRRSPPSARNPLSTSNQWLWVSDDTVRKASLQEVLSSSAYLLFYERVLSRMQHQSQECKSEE

| Structure (SMILES) | IC50 [nM] |
| --- | --- |
| N#CN1CC[C@@H](NC(=O)c2ccc(-c3ccnnc3)cc2F)C1 [Example 152, (R)-N-(1-cyanopyrrolidin-3-yl)-2-fluoro-4-(pyridazin-4-yl)benzamide] | 100 to 1000 |
| CC(C)Cn1nc(C(=O)N[C@@H]2CCN(C#N)C2)c2ccc(-c3cnn(C)c3)cc21 [Example 153, (R)-N-(1-cyanopyrrolidin-3-yl)-1-isobutyl-6-(1-methyl-1H-pyrazol-4-yl)-1H-indazole-3-carboxamide] | 100 to 1000 |
| Cc1noc(C)c1-c1ccc2c(C(=O)N[C@@H]3CCN(C#N)C3)nn(CC(C)C)c2c1 [Example 154, (R)-N-(1-cyanopyrrolidin-3-yl)-6-(3,5-dimethylisoxazol-4-yl)-1-isobutyl-1H-indazole-3-carboxamide] | < 100 |
| Cc1noc(C)c1-c1ccc2c(C(=O)N[C@@H]3CCN(C#N)C3)nn(CC3CC3)c2c1 [Example 155, (R)-N-(1-cyanopyrrolidin-3-yl)-1-(cyclopropylmethyl)-6-(3,5-dimethylisoxazol-4-yl)-1H-indazole-3-carboxamide] | < 100 |
| CN(C(=O)c1cn2cc(-c3cnn(C)c3)ccc2n1)[C@@H]1CCN(C#N)C1 [Example 156, (R)-N-(1-cyanopyrrolidin-3-yl)-N-methyl-6-(1-methyl-1H-pyrazol-4-yl)imidazo[, 2-a]pyridine-2-carboxamide] | 100 to 1000 |
| CN(C(=O)c1cc2cc(-c3cnn(C)c3)ccc2[nH]1)[C@@H]1CCN(C#N)C1 [Example 157, (R)-N-(1-cyanopyrrolidin-3-yl)-N-methyl-5-(1-methyl-1H-pyrazol-4-yl)-1H-indole-2-carboxamide] | < 100 |
| Cc1noc(C)c1-c1ccc2[nH]c(C(=O)N(C)[C@@H]3CCN(C#N)C3)nc2c1 [Example 158, (R)-N-(1-cyanopyrrolidin-3-yl)-6-(3,5-dimethylisoxazol-4-yl)-N-methyl-1H-benzo[d]imidazole-2-carboxamide] | 100 to 1000 |
| Cn1cc(-c2ccn3c(C(=O)N[C@@H]4CCN(C#N)C4)cnc3c2)cn1 [Example 159, (R)-N-(1-cyanopyrrolidin-3-yl)-7-(1-methyl-1H-pyrazol-4-yl)imidazo[1,2-a]pyridine-3-carboxamide] | 100 to 1000 |
| N#Cc1cccc(-c2ccn3c(C(=O)N[C@@H]4CCN(C#N)C4)cnc3c2)c1 [Example 160, (R)-7-(3-cyanophenyl)-N-(1-cyanopyrrolidin-3-yl)imidazo[1,2-a]pyridine-3-carboxamide] | < 100 |
| Cc1cc(-c2ccn3c(C(=O)N(C)[C@@H]4CCN(C#N)C4)cnc3c2)ccn1 [Example 161, (R)-N-(1-cyanopyrrolidin-3-yl)-N-methyl-7-(2-methylpyridin-4-yl)imidazo[1,2-a]pyridine-3-carboxamide] | 100 to 1000 |
| Cc1ccc(-c2ccn3c(C(=O)N(C)[C@@H]4CCN(C#N)C4)cnc3c2)cn1 [Example 162, (R)-N-(1-cyanopyrrolidin-3-yl)-N-methyl-7-(6-methylpyridin-3-yl)imidazo[1,2-a]pyridine-3-carboxamide] | 100 to 1000 |
| Cc1nn(C)cc1-c1ccn2c(C(=O)N(C)[C@@H]3CCN(C#N)C3)cnc2c1 [Example 163, (R)-N-(1-cyanopyrrolidin-3-yl)-7-(1,3-dimethyl-1H-pyrazol-4-yl)-N-methylimidazo[1,2-a]pyridine-3-carboxamide] | 100 to 1000 |
| Cc1cc(-c2ccn3c(C(=O)N(C)[C@@H]4CCN(C#N)C4)cnc3c2)cc(C)n1 [Example 164, (R)-N-(1-cyanopyrrolidin-3-yl)-7-(2,6-dimethylpyridin-4-yl)-N-methylimidazo[1,2-a]pyridine-3-carboxamide] | 100 to 1000 |
| CCN(C(=O)c1cnc2cc(-c3ccnc(C)c3)ccn12)[C@@H]1CCN(C#N)C1 [Example 165, (R)-N-(1-cyanopyrrolidin-3-yl)-N-ethyl-7-(2-methylpyridin-4-yl)imidazo[1,2-a]pyridine-3-carboxamide] | 100 to 1000 |
| N#CN1CC[C@@H](NC(=O)c2cnc3cc(N4CCOCC4)ccn23)C1 [Example 166, (R)-N-(1-cyanopyrrolidin-3-yl)-7-morpholinoimidazo[1,2-a]pyridine-3-carboxamide] | 100 to 1000 |
| N#Cc1cccc(-c2ccc3nc(C(=O)N[C@@H]4CCN(C#N)C4)c(F)n3c2)c1 [Example 167, (R)-6-(3-cyanophenyl)-N-(1-cyanopyrrolidin-3-yl)-3-fluoroimidazo[1,2-a]pyridine-2-carboxamide] | < 100 |
| CCn1cc(-c2ccc3nc(C(=O)N[C@@H]4CCN(C#N)C4)c(F)n3c2)cn1 [Example 169, (R)-N-(1-cyanopyrrolidin-3-yl)-6-(1-ethyl-1H-pyrazol-4-yl)-3-fluoroimidazo[1,2-a]pyridine-2-carboxamide] | 100 to 1000 |
| Cc1nn(C)cc1-c1ccc2nc(C(=O)N[C@@H]3CCN(C#N)C3)c(F)n2c1 [Example 170, (R)-N-(1-cyanopyrrolidin-3-yl)-6-(1,3-dimethyl-1H-pyrazol-4-yl)-3-fluoroimidazo[1,2-a]pyridine-2-carboxamide] | 100 to 1000 |
| N#CN1CC[C@@H](NC(=O)c2ccc(-c3ccn4nccc4n3)cc2F)C1 [Example 172, (R)-N-(1-cyanopyrrolidin-3-yl)-2-fluoro-4-(pyrazolo[1,5-a]pyrimidin-5-yl)benzamide] | < 100 |
| N#CN1CC[C@@H](NC(=O)c2ccc(-c3ccc(F)cc3)cn2)C1 [Example 173, (R)-N-(1-cyanopyrrolidin-3-yl)-5-(4-fluorophenyl)picolinamide] | < 100 |

| Structure (SMILES) | IC50 [nM] |
| --- | --- |
| Cc1nn(C)cc1-c1ccc(C(=O)N[C@@H]2CCN(C#N)C2)nc1 [Example 179, (R)-N-(1-cyanopyrrolidin-3-yl)-5-(1,3-dimethyl-1H-pyrazol-4-yl)picolinamide] | 100 to 1000 |
| Cc1nc(-c2ccc(C(=O)N[C@@H]3CCN(C#N)C3)nc2)cc(C(F)(F)F)n1 [Example 180, (R)-N-(1-cyanopyrrolidin-3-yl)-5-(2-methyl-6-(trifluoromethyl)pyrimidin-4-yl)picolinamide] | 100 to 1000 |
| Cc1cc(-c2ccc(C(=O)N[C@@H]3CCN(C#N)C3)c(F)c2)nc(C)n1 [Example 181, (R)-N-(1-cyanopyrrolidin-3-yl)-4-(2,6-dimethylpyrimidin-4-yl)-2-fluorobenzamide] | < 100 |
| Cc1ncc(F)c(-c2ccc(C(=O)N[C@@H]3CCN(C#N)C3)c(F)c2)n1 [Example 182, (R)-N-(1-cyanopyrrolidin-3-yl)-2-fluoro-4-(5-fluoro-2-methylpyrimidin-4-yl)benzamide] | < 100 |
| N#CN1CC[C@@H](NC(=O)c2ccc(-c3ccnc(C(F)(F)F)n3)cc2F)C1 [Example 183, (R)-N-(1-cyanopyrrolidin-3-yl)-2-fluoro-4-(2-(trifluoromethyl)pyrimidin-4-yl)benzamide] | 100 to 1000 |
| Cc1nc2nccc-2c(-c2ccc(C(=O)N[C@@H]3CCN(C#N)C3)c(F)c2)[nH]1 [Example 184, (R)-N-(1-cyanopyrrolidin-3-yl)-2-fluoro-4-(2-methyl-3H-pyrrolo[2,3-d]pyrimidin-4-yl)benzamide] | < 100 |
| N#CN1CC[C@@H](NC(=O)c2ccc(-c3cnc4cnccn34)cc2F)C1 [Example 185, (R)-N-(1-cyanopyrrolidin-3-yl)-2-fluoro-4-(imidazo[1,2-a]pyrazin-3-yl)benzamide] | < 100 |
| N#CN1CC[C@@H](NC(=O)c2ncc(-c3ccn4nccc4n3)cc2F)C1 [Example 186, (R)-N-(1-cyanopyrrolidin-3-yl)-3-fluoro-5-(pyrazolo[1,5-a]pyrimidin-5-yl)picolinamide] | 100 to 1000 |
| N#CN1CC[C@@H](NC(=O)c2ncc(-c3ccc4nccn4c3)cc2F)C1 [Example 187, (R)-N-(1-cyanopyrrolidin-3-yl)-3-fluoro-5-(imidazo[1,2-a]pyridin-6-yl)picolinamide] | 100 to 1000 |
| COC1(c2ccccc2)CN(C(=O)N[C@@H]2CCN(C#N)C2)C1 [Example 188, (R)-N-(1-cyanopyrrolidin-3-yl)-3-methoxy-3-phenylazetidine-1-carboxamide] | 100 to 1000 |
| CN(C(=O)N1CC(c2ccccc2)C1)[C@@H]1CCN(C#N)C1 [Example 189, (R)-N-(1-cyanopyrrolidin-3-yl)-N-methyl-3-phenylazetidine-1-carboxamide] | 100 to 1000 |
| COc1ccc(C2CN(C(=O)N[C@@H]3CCN(C#N)C3)C2)cc1 [Example 190, (R)-N-(1-cyanopyrrolidin-3-yl)-3-(4-methoxyphenyl)azetidine-1-carboxamide] | < 100 |
| N#CN1CC[C@@H](NC(=O)N2CC(c3ccc(Cl)cc3)C2)C1 [Example 191, (R)-3-(4-chlorophenyl)-N-(1-cyanopyrrolidin-3-yl)azetidine-1-carboxamide] | < 100 |
| N#CN1CC[C@@H](NC(=O)N2CC(c3cccc(Cl)c3)C2)C1 [Example 192, (R)-3-(3-chlorophenyl)-N-(1-cyanopyrrolidin-3-yl)azetidine-1-carboxamide] | < 100 |
| N#CN1C[C@H]2CCN(C(=O)N3CC(c4ccccc4)C3)[C@H]2C1 [Example 193, (3aR,6aR)-1-(3-phenylazetidine-1-carbonyl)hexahydropyrrolo[3,4-b]pyrrole-5(1H)-carbonitrile] | 100 to 1000 |
| CN(C(=O)Nc1ccc(-c2cnn(C)c2)cc1)[C@@H]1CCN(C#N)C1 [Example 194, (R)-1-(1-cyanopyrrolidin-3-yl)-1-methyl-3-(4-(1-methyl-1H-pyrazol-4-yl)phenyl)urea] | 100 to 1000 |
| CN(C(=O)Nc1ccc(C(F)(F)F)cc1)[C@@H]1CCN(C#N)C1 [Example 195, (R)-1-(1-cyanopyrrolidin-3-yl)-1-methyl-3-(4-(trifluoromethyl)phenyl)urea] | 100 to 1000 |
| N#CN1C[C@H]2CCN(C(=O)Nc3ccc(Cl)cc3F)[C@H]2C1 [Example 196, (3aR,6aR)-N-(4-chloro-2-fluorophenyl)-5-cyanohexahydropyrrolo[3,4-b]pyrrole-1(2H)-carboxamide] | 100 to 1000 |
| N#CN1C[C@H]2CCN(C(=O)Nc3ccc(OC(F)(F)F)cc3F)[C@H]2C1 [Example 197, (3aR,6aR)-5-cyano-N-(2-fluoro-4-(trifluoromethoxy)phenyl)hexahydropyrrolo[3,4-b]pyrrole-1(2H)-carboxamide] | < 100 |
